The numbers were not newly measured in US20260256858A1, “Amanita Muscaria Mushroom Extracts and Products, and Improved Processes for Producing Extracts of Amanita Muscaria Mushrooms at Kilogram Scale” (priority 2023, published 2026), which cites them from elsewhere.

SMILES strings stand for the structures.

The conditions of series [1]: after ingestion of Amanita mushrooms.
[2] abbreviates: IV injection, 8 μmol/kg, 150 g rat.

For the compound `N[C@H](C(=O)O)c1cc(=O)[nH]o1` [ibotenic acid, (S)-2-amino-2-(3-hydroxyisoxazol-5-yl) acetic acid], the “detection in urine after ingestion” value in series [1] is “detected within an hour after ingestion”.

Take `NCc1cc(=O)[nH]o1` [muscimol, 5-(aminomethyl)-1,2-oxazol-3 (2H)-one]: for the setting “IV injection of 3H-muscimol, 8 μmol/kg, rat”, the “brain regions with the highest muscimol concentration” value is “the substantia nigra, the colliculi and the hypothalamus”. Besides, under setting [2], the “amount of the dose injected that crossed to the brain” value is given as “approximately 0.02%” and the “muscimol concentration in brain” value is on record as “approximately 200 pmol/g tissue”. Moreover, the “time until blood concentration was below limits of detection” value (after intravenous injection, rat) was ≤ 180 min. The “distribution in corneum stratum compared to hypothalamus, hippocampus and cortex” value (intracerebroventricular injection, 1200 nmol/kg, rat) was “approximately 2 times higher”. In addition, the “tolerability (adverse effects or toxicity)” value (intravenous injection of muscimol, 8 μmol/kg, rat) is recorded as “well-tolerated”. The “detection in urine after ingestion” value in series [1] is reported as “detected within an hour after ingestion”.
